{"source": "paper PMC3946503", "about": "“Impact of the Smoothened Inhibitor, IPI-926, on Smoothened Ciliary Localization and Hedgehog Pathway Activity” (PLoS ONE, 2014)", "molecular_target": "T1, Smoothened (Smo) (Homo sapiens, UniProt Q99835)", "T1 construct": "wild-type human Smo overexpressed in C3H10T1/2 cells", "T1 sequence (Q99835 28-787)": "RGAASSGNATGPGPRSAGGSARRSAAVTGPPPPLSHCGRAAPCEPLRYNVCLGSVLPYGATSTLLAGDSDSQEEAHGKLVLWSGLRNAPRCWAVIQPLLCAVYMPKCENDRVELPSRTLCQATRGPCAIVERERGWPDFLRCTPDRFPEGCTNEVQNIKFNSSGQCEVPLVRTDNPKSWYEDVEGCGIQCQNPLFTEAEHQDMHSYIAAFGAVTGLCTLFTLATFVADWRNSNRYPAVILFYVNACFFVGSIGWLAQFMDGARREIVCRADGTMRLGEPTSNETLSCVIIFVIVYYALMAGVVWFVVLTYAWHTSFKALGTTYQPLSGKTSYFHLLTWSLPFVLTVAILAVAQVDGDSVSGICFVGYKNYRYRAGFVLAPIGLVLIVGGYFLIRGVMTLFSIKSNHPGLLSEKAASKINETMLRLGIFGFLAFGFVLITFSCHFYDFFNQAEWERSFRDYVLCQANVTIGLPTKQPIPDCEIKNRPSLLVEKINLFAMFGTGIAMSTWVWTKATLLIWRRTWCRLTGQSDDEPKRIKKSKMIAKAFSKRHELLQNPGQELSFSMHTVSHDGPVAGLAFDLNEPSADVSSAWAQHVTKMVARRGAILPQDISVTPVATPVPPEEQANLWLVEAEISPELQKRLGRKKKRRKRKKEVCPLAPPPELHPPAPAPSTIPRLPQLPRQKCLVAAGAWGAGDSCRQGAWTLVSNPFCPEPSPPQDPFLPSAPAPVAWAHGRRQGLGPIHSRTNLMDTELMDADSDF", "assay": "BODIPY-cyclopamine competition binding on Smo-expressing cells, flow cytometry", "type": "cell-based", "data": [{"compound": "CC1=C2C[C@H]3[C@@H](CC[C@@H]4C[C@H](NS(C)(=O)=O)CC[C@@]43C)[C@@H]2CC[C@@]2(C1)O[C@@H]1C[C@H](C)CN[C@H]1[C@H]2C", "note": "[IPI-926]", "values": [{"measurement": "EC50", "result": 1, "unit": "nM"}]}]}
